Source: US5262157A (priority 1988, dated 1993)

How the values were obtained:
Pneumocystis carinii [1] = assay: Experimental rat model of Pneumocystis carinii pneumonia (PCP); format: in vivo; settings: for Cysts/hpf in lung at necropsy: high power field 400×
Method: (§1) Rats were treated in groups of four. […] Doses in all trials were calculated as above.
Treatment regimens were tested in the standard animal model of PCP (6). To induce infection with P. carinii, rats were immunosuppresed with steriods for twelve weeks while restricted to a low-protein diet and tetracycline. Administration of a test regimen was initiated early during the induction period to determine its effectiveness in preventing PCP and was initiated late during the induction period to determine its effectiveness in treating PCP. Male Sprague-Dawley rats weighing 175-225 g were used. Rats were given twice weekly subcutaneous injections of 75 mg/kg of cortisone acetate, were maintained on an 8% protein diet, and were treated with tetracycline via their drinking water. Rats were sacrificed after twelve weeks of this regimen and the extent of infection was judged by counting cysts in toluidine blue 0-stained smears of lung homogenates. Lung homogenates were prepared by combining a weighed portion of tissue with nine ml of 0.1N HCl per g.

in vivo = settings: rat; for concentration at 24 h: inhaled or intranasal, 3.2 mg/kg/day, aerosol 3.2 mg/kg daily × 4, 24 h after last dose
Method: as §1
Treatments were well-tolerated. […] There were rare foci of mild thickening of interalveolar septae containing a few histiocytes and some congestion. […] These were also seen in sections from control animals and are common findings in normal rat lung.

Pneumocystis carinii [2] = assay: Clinical effectiveness of aerosol pentamidine in prophylaxis of PCP; format: in vivo, human
Method: Each aerosol treatment was given over 15-30 minutes. […] 1.0, 1.5,or 2.0 ml aliquots were added to the nebulizer reservoir for doses of 30, 45, or 60 mg, respectively. Sterile pyrogen-free water was added to yield a total volume of 3.0 ml. Treatments were administered by a physician or registered nurse.
Prophylaxis was judged effective for an individual patient if that patient had no proven or probable episodes of PCP. Prophylaxis was considered a proven failure if a patinet developed pneumonia and P. carinii was found in stained preparations obtained by bronchoscopy or lung biopsy. Prophylaxis was considered a probable failure if a patient develops pneumonia and responded to empiric treatment with SXT […]. If a patient died and no autopsy was perfomed, the case was considered not evaluable unless there was evidence that the patient had good antemortem pulmonary function and died from other causes. If the latter conditions were met, the case was considered a probable success.
The treatment period was three months; patients were examined before and after each treatment and underwent pulmonary function testing and biochemical and hematologic tests before treatment no. 1 and after treatment nos. 1, 2, 4, and 6.
A total of 650 treatments were given. Treatment periods ranged from 1-12 months. […] They had no reactions after their first four doses and was receiving several other medications at the time the rash developed. […] Five proven episodes of PCP have occurred among patients who received biweekly doses of 30 mg; six proven episodes of PCP have occurred among patients who were treated with this dose, but who skipped one or more scheduled doses.
A total of 73 patients were enrolled over the past two months with approximately equal numbers at each dose level. […] Patients who were receiving the low dose have since been randomized to receive either 45 or 60 mg. To date two patients receiving 45 mg have had proven episodes of PCP.

[3] = test system: African trypanosomiasis (sleeping sickness); settings: cited from earlier work
[4] = rat, aerosol doses greatly exceeding the therapeutic dose; cited from earlier work
[5] = cited from earlier work
[6] = Pentamidine tissue concentrations in humans after intravenous infusions; settings: human, IV 4.0 mg/kg/day
[7] = Trial I, 0.4 mg/kg aerosol weekly, wk 5-11, mean ± standard deviation
[8] = Trial I, 4.0 mg/kg IM weekly, wk 5-11, mean ± standard deviation
[9] = Trial I, prophylactic aerosol 0.4 mg/kg weekly, weeks 5-11
[10] = Trial II, 0.2 mg/kg aerosol weekly, wk 7-11, mean ± standard deviation
[11] = Trial II, 0.4 mg/kg aerosol daily, 4×, wk 10, mean ± standard deviation
[12] = Trial III, 0.4 mg/kg aerosol biweekly, wks 7, 9, 11, mean ± standard deviation
[13] = Trial III, 0.4 mg/kg aerosol daily, 4×, wk 12, mean ± standard deviation
[14] = Trial III, 0.8 mg/kg aerosol monthly, wks 4, 8, mean ± standard deviation
[15] = aerosol 45 mg, weekly for four weeks then biweekly

N=C(N)c1ccc(OCCCCCOc2ccc(C(=N)N)cc2)cc1 [pentamidine, Pentamidine isethionate]
Cysts/hpf in lung at necropsy (Pneumocystis carinii [1]; Trial I, 0.4 mg/kg aerosol weekly, wk 5-11): < 1 Cysts/hpf | Lung weight at necropsy (Pneumocystis carinii [1]; [7]): 1.94 ± 0.21 g | Pent in lung at necropsy (Pneumocystis carinii [1]; [7]): 29.7 ± 7.1 µg/g | Cysts/hpf in lung at necropsy (Pneumocystis carinii [1]; [8]): 102 ± 88 Cysts/hpf | Lung weight at necropsy (Pneumocystis carinii [1]; [8]): 3.28 ± 1.15 g | Pent in lung at necropsy (Pneumocystis carinii [1]; [8]): 4.5 ± 1.7 µg/g | effectiveness in prevention of PCP, aerosol versus IM (Pneumocystis carinii [1]; Trial I, aerosol 0.4 mg/kg vs IM 4.0 mg/kg weekly): more effective in prevention of PCP than tenfold higher doses of IM pentamidine | cysts of P. carinii in stained smears of lung homogenates (Pneumocystis carinii [1]; [9]): rare or absent | lung weight and appearance (Pneumocystis carinii [1]; [9]): normal in weight and appearance | severity of infection versus control animals (Pneumocystis carinii [1]; [9]): more than a thousandfold less severe infection than was seen in control animals | Lung weight at necropsy (Pneumocystis carinii [1]; [10]): 1.43 ± 0.31 g | Pent in lung at necropsy (Pneumocystis carinii [1]; [10]): 15.2 ± 5.0 µg/g | Cysts/hpf in lung at necropsy (Pneumocystis carinii [1]; [11]): 20.8 ± 30.8 Cysts/hpf | Lung weight at necropsy (Pneumocystis carinii [1]; [11]): 1.20 ± 0.20 g | Pent in lung at necropsy (Pneumocystis carinii [1]; [11]): 15.8 ± 10.9 µg/g | effectiveness of prophylactic regimen (Pneumocystis carinii [1]; Trial II, aerosol weekly, weeks 7-11, 0.1 mg/kg): effective | Cysts/hpf in lung at necropsy (Pneumocystis carinii [1]; [12]): 48 ± 109 Cysts/hpf | Lung weight at necropsy (Pneumocystis carinii [1]; [12]): 1.41 ± 0.64 g | Pent in lung at necropsy (Pneumocystis carinii [1]; [12]): 13.4 ± 7.9 µg/g | Cysts/hpf in lung at necropsy (Pneumocystis carinii [1]; [13]): 188 ± 255 Cysts/hpf | Lung weight at necropsy (Pneumocystis carinii [1]; [13]): 2.08 ± 0.68 g | Pent in lung at necropsy (Pneumocystis carinii [1]; [13]): 8.3 ± 6.4 µg/g | Cysts/hpf in lung at necropsy (Pneumocystis carinii [1]; [14]): 4.6 ± 4.2 Cysts/hpf | Lung weight at necropsy (Pneumocystis carinii [1]; [14]): 1.26 ± 0.26 g | Pent in lung at necropsy (Pneumocystis carinii [1]; [14]): 16.1 ± 3.3 µg/g | effectiveness of prophylactic regimens (Pneumocystis carinii [1]; Trial III, aerosol 0.8 mg/kg monthly and 0.4 mg/kg biweekly): effective | prevention of PCP in the animal model (Pneumocystis carinii [1]; low and infrequent aerosol treatment): highly effective in prevention of PCP | retention of aerosol pentamidine (Pneumocystis carinii [1]; normal animals and early prophylactic doses vs animals treated with severe pneumonia): greater in normal animals and in animals that received early prophylactic doses than it was in animals who were treated when they had severe pneumonia | effectiveness of therapeutic regimen (Pneumocystis carinii [1]; rat, in vivo): partially effective | number of cysts versus lung pentamidine concentration (Pneumocystis carinii [1]; within the prophylaxis and treatment groups): the lowest number of cysts were found in animals with the highest concentrations of pentamidine in the lung | concentration at 24 h (in vivo; kidney): 7200 ng/g | concentration at 24 h (in vivo; lung): 291000 ng/g | lung weight and appearance (in vivo; aerosol 3.2 mg/kg daily × 4): normal in weight and appearance | toxicity of high lung concentrations (in vivo; aerosol 3.2 mg/kg daily × 4): little or no toxicity | tolerability of treatments (in vivo; aerosol 3.2 mg/kg daily × 4 (total dose 12.8 mg/kg)): well-tolerated | histopathology of lungs (in vivo; aerosol 3.2 mg/kg daily × 4, stained sections): no histopathologic changes were found | proven episodes of PCP (Pneumocystis carinii [2]; aerosol 30 mg biweekly, 60 patients, 1-12 months): Five | proven episodes of PCP in patients who skipped one or more scheduled doses (Pneumocystis carinii [2]; aerosol 30 mg biweekly, skipped doses): six | proven or possible episodes of PCP (Pneumocystis carinii [2]; aerosol 30 mg biweekly, twelve patients, three months): no patient had a proven or possible episode of PCP | protection (Pneumocystis carinii [2]; aerosol 30 mg dose): not reliably protective | patients with proven episodes of PCP (Pneumocystis carinii [2]; [15]): two | severity of PCP episodes (Pneumocystis carinii [2]; [15]): very mild episodes | mild cases of PCP (Pneumocystis carinii [2]; all phases, 960 doses, 116 patients): seven | protection (Pneumocystis carinii [2]; all phases, preliminary evidence): at least partially protective | resistance to infection after a single IM dose ([3]; human volunteers, weekly bites from infected tse-tse flies): resisted infection for one year or more | chemoprophylaxis of African trypanosomiasis ([3]; human): effective in the chemoprophylaxis of African trypanosomiasis | elimination of infection in endemic areas ([3]; twice-yearly IV or IM doses, Africa): eliminated the infection in endemic areas | toxicity in histopathologic sections from the lungs [4]: No toxicity was seen | elimination from blood ([5]; IV or IM): eliminated rapidly from blood | elimination from tissues ([5]; in vivo): eliminated slowly from them | Pentamidine concentration, Adrenal ([6]; 1 dose): 19 µg/g | Pentamidine concentration, Kidney ([6]; 1 dose): 8.5 µg/g | Pentamidine concentration, Liver ([6]; 1 dose): 35 µg/g | Pentamidine concentration, Spleen ([6]; 1 dose): 40 µg/g | Pentamidine concentration, Kidney ([6]; 2 doses): 13 µg/g | Pentamidine concentration, Liver ([6]; 2 doses): 23 µg/g | Pentamidine concentration, Spleen ([6]; 2 doses): 40 µg/g | Pentamidine concentration, Kidney ([6]; 5 doses): 62 µg/g | Pentamidine concentration, Liver ([6]; 5 doses): 112 µg/g | Pentamidine concentration, Lung ([6]; 5 doses): 42 µg/g | Pentamidine concentration, Spleen ([6]; 5 doses): 28 µg/g | Pentamidine concentration, Adrenal ([6]; 15 doses): 92 µg/g | Pentamidine concentration, Kidney ([6]; 15 doses): 123 µg/g | Pentamidine concentration, Liver ([6]; 15 doses): 300 µg/g | Pentamidine concentration, Lung ([6]; 15 doses): 56 µg/g | Pentamidine concentration, Spleen ([6]; 15 doses): 368 µg/g
